Data: patent publication US20250034110A1, “LPAR1 ANTAGONISTS AND USES THEREOF” (Pipeline Therapeutics, Inc., priority 2021, published 2025)
Like-named read-outs stand apart in the source and are kept apart here.

Molecular target: human LPAR1 (Homo sapiens, UniProt Q92633)
Assay: In vitro functional assay of lysophosphatidic acid receptor 1 activity (calcium flux)
Format: cell-based
[1] = B103 cells stably expressing human LPAR1, calcium flux (Fluo-4 NW) after lysophosphatidic acid (18:1) at EC80, 100 pM to 10 μM, read-out: LPAR1 IC50

Sequence of human LPAR1 (Q92633 whole entry): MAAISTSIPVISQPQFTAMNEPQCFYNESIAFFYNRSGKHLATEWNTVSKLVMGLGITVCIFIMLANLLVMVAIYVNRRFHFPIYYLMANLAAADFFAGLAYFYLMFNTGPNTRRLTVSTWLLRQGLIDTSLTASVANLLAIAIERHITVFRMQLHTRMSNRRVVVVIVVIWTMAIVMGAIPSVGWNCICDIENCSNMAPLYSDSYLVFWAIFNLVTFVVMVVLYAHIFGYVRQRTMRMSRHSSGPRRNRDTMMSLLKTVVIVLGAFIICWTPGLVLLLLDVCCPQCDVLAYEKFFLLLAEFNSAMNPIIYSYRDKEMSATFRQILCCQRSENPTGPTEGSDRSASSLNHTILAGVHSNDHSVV

Q: Which IC50 (LPAR1 IC50) does the source give for `COc1nc(OC(F)F)c(NC(=O)N(c2ccccc2C(C)C)C2CCN(C(C)=O)CC2)cc1F` [Example 225, 1-(1-acetylpiperidin-4-yl)-3-(2-(difluoromethoxy)-5-fluoro-6-methoxypyridin-3-yl)-l-(2-isopropylphenyl)urea] here?
A: 10 to 100 nM

Q: For `CC(=O)N1C[C@@H]2[C@H](C1)[C@H]2N(C(=O)Nc1ccc(C)nc1OC(F)F)c1ccccc1C(C)C` [Example 69, 1-((1R,5S,6s)-3-acetyl-3-azabicyclo[3.1.0]hexan-6-yl)-3-(2-(difluoromethoxy)-6-methylpyridin-3-yl)-1-(2-isopropylphenyl)urea], which IC50 (LPAR1 IC50) is on record?
A: 100 to 1000 nM

Q: For `Cc1ccc(NC(=O)N(c2ccccc2C(C)C)C2CC3(C2)CN(S(N)(=O)=O)C3)c(OC(F)F)c1` [Example 128], which IC50 [1] is on record?
A: 10 to 100 nM

Q: With `Cc1ccc(NC(=O)N(c2ccccc2C(C)C)[C@H]2C[C@H](C(=O)O)C2)c(OC(F)F)n1` [Example 161, trans-3-(3-(2-(difluoromethoxy)-6-methylpyridin-3-yl)-1-(2-isopropylphenyl)ureido)cyclobutane-1-carboxylic acid] as the molecule, how does the IC50 [1] read?
A: 10 to 100 nM

Q: For `CC(=O)N1CC(N(C(=O)Nc2ccc(C)cc2OC(F)F)c2ccccc2C(C)C)C1` [Example 117, 1-(1-acetylazetidin-3-yl)-3-(2-(difluoromethoxy)-4-methylphenyl)-1-(2-isopropylphenyl)urea], which IC50 [1] is on record?
A: 10 to 100 nM

Q: For `Cc1ccc(NC(=O)N(c2ccccc2C(C)C)[C@H]2CC[C@H](CC(C)(C)O)CC2)c(OC(F)F)n1` [Example 247, 3-(2-(difluoromethoxy)-6-methylpyridin-3-yl)-1-((1r,4r)-4-(2-hydroxy-2-methylpropyl)cyclohexyl)-1-(2-isopropylphenyl)urea], which IC50 [1] is on record?
A: 10 to 100 nM

Q: How did the IC50 [1] turn out when `CC(=O)N1CC[C@H]1CN(C(=O)Nc1ccc(C)nc1OC(F)F)c1ccccc1C(C)C` [Example 72, (S)-1-((1-acetylazetidin-2-yl)methyl)-3-(2-(difluoromethoxy)-6-methylpyridin-3-yl)-1-(2-isopropylphenyl)urea] was run?
A: 100 to 1000 nM

Q: How did the IC50 [1] turn out when `Cc1ccc(NC(=O)N(c2ccccc2C(C)C)[C@H]2C[C@H](Cc3nnn[nH]3)C2)c(OC(F)F)n1` [Example 191, 1-((1r,3r)-3-((1H-tetrazol-5-yl)methyl)cyclobutyl)-3-(2-(difluoromethoxy)-6-methylpyridin-3-yl)-1-(2-isopropylphenyl)urea] was run?
A: 10 to 100 nM

Q: For `Cc1ccc(NC(=O)N(c2ccccc2C(C)C)[C@H]2CC[C@@H](S(C)(=O)=O)CC2)c(OC(F)F)n1` [Example 255, 3-(2-(difluoromethoxy)-6-methylpyridin-3-yl)-1-(2-isopropylphenyl)-1-((1s,4s)-4-(methylsulfonyl)cyclohexyl)urea], which IC50 [1] is on record?
A: 10 to 100 nM

Q: `COc1ccc(NC(=O)N(c2ccccc2C(C)C)[C@@H]2CCN(C3COC3)C2)c(OC(F)F)n1` [Example 37, (R)-3-(2-(difluoromethoxy)-6-methoxypyridin-3-yl)-1-(2-isopropylphenyl)-1-(1-(oxetan-3-yl)pyrrolidin-3-yl)urea] was tested. Which IC50 [1] did it give?
A: 100 to 1000 nM

Q: Which IC50 [1] does the source give for `COc1ccc(NC(=O)N(c2ccccc2C(C)C)[C@H]2C[C@@]3(C[C@@H]3C(=O)O)C2)c(OC(F)F)n1` [Example 149] here?
A: 10 to 100 nM

Q: `CC(C)Oc1ccc(NC(=O)N(c2ccccc2C(C)C)[C@H]2CC[C@H](C(=O)O)CC2)c(OC(C)C)n1` [Example 252, (1r,4r)-4-(3-(2,6-diisopropoxypyridin-3-yl)-1-(2-isopropylphenyl)ureido)cyclohexane-1-carboxylic acid] was tested. Which IC50 [1] did it give?
A: 100 to 1000 nM

Q: Which IC50 [1] does the source give for `CC(C)c1ccccc1N(C(=O)Nc1ccc(O)nc1OC(F)F)[C@H]1CC[C@H](C(=O)O)CC1` [Example 320] here?
A: 10 to 100 nM

Q: How did the IC50 [1] turn out when `Cc1nc(OC(F)F)c(NC(=O)N(c2ccccc2C(C)C)[C@H]2CC[C@H](C(=O)O)CC2)cc1F` [Example 221, (1r,4r)-4-(3-(2-(difluoromethoxy)-5-fluoro-6-methylpyridin-3-yl)-1-(2-isopropylphenyl)ureido)cyclohexane-1-carboxylic acid] was run?
A: < 10 nM

Q: With `CC(=O)N1CCC(N(C(=O)Nc2cnc(C(F)(F)F)cn2)c2ccccc2C(C)C)CC1` [Example 132] as the molecule, how does the IC50 (LPAR1 IC50) read?
A: > 1000 nM

Q: Which IC50 (LPAR1 IC50) does the source give for `Cc1ccc(NC(=O)N(c2ccccc2C(C)C)C2CCN(S(C)(=O)=O)CC2)c(OC(F)F)n1` [Example 73, 3-(2-(difluoromethoxy)-6-methylpyridin-3-yl)-1-(2-isopropylphenyl)-1-(1-(methylsulfonyl)piperidin-4-yl)urea] here?
A: < 10 nM

Q: For `COC(=O)[C@H]1C[C@H](N(C(=O)Nc2cc(F)c(F)cc2OC(F)F)c2ccccc2C(C)C)C1` [Example 163, methyl (1r,3r)-3-(3-(2-(difluoromethoxy)-4,5-difluorophenyl)-1-(2-isopropylphenyl)ureido)cyclobutane-1-carboxylate], which IC50 [1] is on record?
A: > 1000 nM

Q: How did the IC50 [1] turn out when `CC(=O)N[C@H]1CC[C@H](N(C(=O)Nc2ccc(C)nc2OC(F)F)c2ccccc2C(C)C)CC1` [Example 267, N-((1r,4r)-4-(3-(2-(difluoromethoxy)-6-methylpyridin-3-yl)-1-(2-isopropylphenyl)ureido)cyclohexyl)acetamide] was run?
A: 10 to 100 nM

Q: Which IC50 (LPAR1 IC50) does the source give for `COc1ccc(NC(=O)N(c2ccccc2C(C)C)[C@@H]2C[C@H]3CC[C@@H](C2)N3C(C)=O)c(OC(F)F)n1` [Example 54, 1-((1R,3s,5S)-8-acetyl-8-azabicyclo[3.2.1]octan-3-yl)-3-(2-(difluoromethoxy)-6-methoxypyridin-3-yl)-1-(2-isopropylphenyl)urea] here?
A: 10 to 100 nM

Q: With `COc1ccc(NC(=O)N(c2ccccc2C(C)C)[C@H]2CC[C@](C)(C(=O)O)CC2)c(OC(F)F)n1` [Example 340] as the molecule, how does the IC50 [1] read?
A: 10 to 100 nM

Q: For `Cc1cc(OC(F)F)c(NC(=O)N(c2ccccc2C(C)C)[C@H]2C[C@@H](CC(=O)O)C2)cn1` [Example 305], which IC50 [1] is on record?
A: 10 to 100 nM

Q: How did the IC50 [1] turn out when `Cc1ccc(NC(=O)N(c2ccccc2C(C)C)C2CCC(F)(F)CC2)c(OC(F)F)n1` [Example 237, 1-(4,4-difluorocyclohexyl)-3-(2-(difluoromethoxy)-6-methylpyridin-3-yl)-1-(2-isopropylphenyl)urea] was run?
A: 100 to 1000 nM

Q: For `Cc1ccc(NC(=O)N(c2ccccc2C(C)C)C2CC3(C2)CS(=O)(=O)C3)c(OC(F)F)n1` [Example 21, 3-(2-(difluoromethoxy)-6-methylpyridin-3-yl)-1-(2,2-dioxido-2-thiaspiro[3.3]heptan-6-yl)-1-(2-isopropylphenyl)urea], which IC50 [1] is on record?
A: 100 to 1000 nM

Q: `CC(=O)N1CCC(N(C(=O)Nc2ncc(Br)nc2OC(F)F)c2ccccc2C(C)C)CC1` [Example 184, 1-(1-acetylpiperidin-4-yl)-3-(5-bromo-3-(difluoromethoxy)pyrazin-2-yl)-1-(2-isopropylphenyl)urea] was tested. Which IC50 (LPAR1 IC50) did it give?
A: 100 to 1000 nM

Q: Which IC50 (LPAR1 IC50) does the source give for `CC(=O)N1CCC(N(C(=O)Nc2ccc(C)nc2OC(F)F)c2ccccc2C(C)C)CC1` [Example 66, 1-(1-acetylpiperidin-4-yl)-3-(2-(difluoromethoxy)-6-methylpyridin-3-yl)-1-(2-isopropylphenyl)urea] here?
A: < 10 nM

Q: `CC(C)c1ccccc1N(C(=O)Nc1cc(F)c(Cl)cc1OCC(F)F)[C@H]1C[C@@H](CC(=O)O)C1` [Example 331] was tested. Which IC50 [1] did it give?
A: < 10 nM

Q: With `COc1ccc(NC(=O)N(c2ccccc2C(C)C)C2CCN(C)C(=O)C2)c(OC(F)F)n1` (centres unmarked) [Example 44, 3-(2-(difluoromethoxy)-6-methoxypyridin-3-yl)-1-(2-isopropylphenyl)-1-(1-methyl-2-oxopiperidin-4-yl)urea] as the molecule, how does the IC50 [1] read?
A: 10 to 100 nM

Q: How did the IC50 [1] turn out when `CC(C)c1ccccc1N(C(=O)Nc1cc(F)c(Cl)cc1OCC(F)F)[C@H]1CC[C@H](C(=O)O)CC1` [Example 334, (1r,4r)-4-(3-(4-chloro-2-(2,2-difluoroethoxy)-5-fluorophenyl)-1-(2-isopropylphenyl)ureido)cyclohexane-1-carboxylic acid] was run?
A: < 10 nM

Q: `COc1ccc(NC(=O)N(c2ccccc2C(C)C)[C@@H]2[C@@H]3CC[C@H]2CN(C(C)=O)C3)c(OC(F)F)n1` [Example 56, 1-((1R,5S,8s)-3-acetyl-3-azabicyclo[3.2.1]octan-8-yl)-3-(2-(difluoromethoxy)-6-methoxypyridin-3-yl)-1-(2-isopropylphenyl)urea] was tested. Which IC50 (LPAR1 IC50) did it give?
A: 100 to 1000 nM

Q: Which IC50 (LPAR1 IC50) does the source give for `CC(=O)N1CCC(N(C(=O)Nc2ccc(C)nc2OC(F)F)c2cccc(C(C)C)c2)CC1` [Example 32, 1-(1-acetylpiperidin-4-yl)-3-(2-(difluoromethoxy)-6-methylpyridin-3-yl)-1-(3-isopropylphenyl)urea] here?
A: 100 to 1000 nM

Q: With `CC(=O)N1CCC(N(C(=O)Nc2ccc(C(F)(F)F)nc2C)c2ccccc2C(C)C)CC1` [Example 88] as the molecule, how does the IC50 (LPAR1 IC50) read?
A: > 1000 nM

Q: How did the IC50 [1] turn out when `CC(=O)N1CC[C@@H]1CN(C(=O)Nc1ccc(C)nc1OC(F)F)c1ccccc1C(C)C` [Example 71, (R)-1-((1-acetylazetidin-2-yl)methyl)-3-(2-(difluoromethoxy)-6-methylpyridin-3-yl)-1-(2-isopropylphenyl)urea] was run?
A: > 1000 nM

Q: For `Cc1ccc(NC(=O)N(CC23CC(C(=O)O)(C2)C3(F)F)c2ccccc2C(C)C)c(OC(F)F)n1` [Example 235], which IC50 [1] is on record?
A: 10 to 100 nM

Q: How did the IC50 [1] turn out when `COc1cc(C(F)F)ncc1NC(=O)N(c1ccccc1C(C)C)[C@H]1C[C@@H](CC(=O)O)C1` [Example 307] was run?
A: 100 to 1000 nM

Q: How did the IC50 [1] turn out when `COC(=O)N1CC(N(C(=O)Nc2ccc(C)nc2OC(F)F)c2ccccc2C(C)C)C1` [Example 77, methyl 3-(3-(2-(difluoromethoxy)-6-methylpyridin-3-yl)-l-(2-isopropylphenyl)ureido)azetidine-1-carboxylate] was run?
A: 10 to 100 nM

Q: Which IC50 [1] does the source give for `Cc1ccc(NC(=O)N(c2ccccc2C(C)C)C2CCC(=O)N(C)C2)c(OC(F)F)n1` (centres unmarked) [Example 4, 3-(2-(difluoromethoxy)-6-methylpyridin-3-yl)-1-(2-isopropylphenyl)-1-(1-methyl-6-oxopiperidin-3-yl)urea] here?
A: 10 to 100 nM

Q: Which IC50 [1] does the source give for `CC(=O)N(C(C)=O)[C@H]1CC[C@@H](N(C(=O)Nc2ccc(C)nc2OC(F)F)c2ccccc2C(C)C)CC1` [Example 264, N-acetyl-N-((1s,4s)-4-(3-(2-(difluoromethoxy)-6-methylpyridin-3-yl)-1-(2-isopropylphenyl)ureido)-cyclohexyl)acetamide] here?
A: 100 to 1000 nM

Q: How did the IC50 [1] turn out when `COc1ccc(NC(=O)N(c2ccccc2C(C)C)[C@H]2C[C@@H]3CC[C@H]2N3C(C)=O)c(OC(F)F)n1` (racemic) [Example 60, rac-1-((1R,2S,4S)-7-acetyl-7-azabicyclo[2.2.1]heptan-2-yl)-3-(2-(difluoromethoxy)-6-methoxypyridin-3-yl)-1-(2-isopropylphenyl)urea] was run?
A: > 1000 nM
